{"source": "patent US11214787B2", "about": "“Modified beta-lactamases and methods and uses related thereto” (priority 2010, dated 2022)", "assay_type": "in vivo", "settings": "beagle dogs; single dose ceftriaxone 30 mg/kg i.v., without beta-lactamase", "protocol": "The capability of Bacillus licheniformis D276N mutant beta-lactamase enzyme to inactivate ceftriaxone (CRO) which has been excreted into the gastrointestinal tract during parenteral therapy was investigated in a dog model. Laboratory beagles of the study have a nipple valve surgically inserted in jejunum approximately 170 cm distal to pylorus enabling collection of samples for the analysis. […] Five beagle dogs were utilized in each experiment.\nThe study was performed as two sequential treatments: In the first treatment (control experiment without beta-lactamase therapy), a single dose of ceftriaxone (30 mg of ceftriaxone (CRO) per kg of body weight which corresponds to about 1 gram dose of CRO in humans) was administered intravenously minutes after the first feeding of the dogs. Jejunal samples were collected at various time points during ten hours. The dogs were fed again five hours and forty minutes after the ceftriaxone administration in order to induce the biliary excretion of ceftriaxone accumulated in gallbladder.\nJejunal chyme samples were immediately freezed and stored at −20° C. to await the analysis. Chyme samples were pretreated with perchloric-citric acid in order to precipitate interfering substances. […] A reverse-phase high-pressure chromatography method with UV detection was used for the quantification of ceftriaxone in supernatants. […]", "data": [{"smiles": "CO/N=C(\\C(=O)N[C@@H]1C(=O)N2C(C(=O)O)=C(CSc3nc(=O)c(=O)[nH]n3C)CS[C@H]12)c1csc(N)n1", "note": "[ceftriaxone]", "values": [{"measurement": "highest jejunal ceftriaxone concentration", "result": "about 1500 micrograms per gram of jejunal chyme"}, {"measurement": "time of highest jejunal ceftriaxone concentration after injection", "result": 60, "unit": "min"}]}]}
